By inhibition in vivo is commonly meant the share of the control response that was lost under treatment.

What all share (format): functional
Holding throughout (settings): Stomach

Assay [1] concerns Mus musculus. Nature of the assay: Antiulcerogenic activity in Kunming mouse assessed as inhibition of ethanol-induced gastric ulcer at 3.7 mg/kg, po qd for 5 days measured 1 hr post last dose relative to control.
Assay [2] relates to Mus musculus. Nature of the assay: Antiulcerogenic activity in Kunming mouse assessed as inhibition of ethanol-induced gastric ulcer at 3.2 mg/kg, po qd for 5 days measured 1 hr post last dose relative to control.
The test system of assay [3] is Mus musculus. Nature of the assay: Antiulcerogenic activity in Kunming mouse assessed as inhibition of ethanol-induced gastric ulcer at 3.6 mg/kg, po qd for 5 days measured 1 hr post last dose relative to control.
For assay [4], the system named is Mus musculus. Briefly: Antiulcerogenic activity in Kunming mouse assessed as inhibition of ethanol-induced gastric ulcer at 4.6 mg/kg, po qd for 5 days measured 1 hr post last dose relative to control.
Assay [5] has as its system Mus musculus. Briefly: Antiulcerogenic activity in Kunming mouse assessed as inhibition of ethanol-induced gastric ulcer at 4 mg/kg, po qd for 5 days measured 1 hr post last dose relative to control.
Assay [6] relates to Mus musculus. Briefly: Antiulcerogenic activity in Kunming mouse assessed as inhibition of ethanol-induced gastric ulcer at 4.5 mg/kg, po qd for 5 days measured 1 hr post last dose relative to control.
Assay [7] concerns Mus musculus. Nature of the assay: Antiulcerogenic activity in Kunming mouse assessed as inhibition of ethanol-induced gastric ulcer at 3.1 mg/kg, po qd for 5 days measured 1 hr post last dose relative to control.
For assay [8], the system named is Mus musculus. Nature of the assay: Antiulcerogenic activity in Kunming mouse assessed as inhibition of ethanol-induced gastric ulcer at 3.9 mg/kg, po qd for 5 days measured 1 hr post last dose relative to control.
In assay [9] the test system is Mus musculus. Briefly: Antiulcerogenic activity in Kunming mouse assessed as inhibition of ethanol-induced gastric ulcer at 4.7 mg/kg, po qd for 5 days measured 1 hr post last dose relative to control.
Assay [10] relates to Mus musculus. Briefly: Antiulcerogenic activity in Kunming mouse assessed as inhibition of ethanol-induced gastric ulcer at 3 mg/kg, po qd for 5 days measured 1 hr post last dose relative to control.
Assay [11] relates to Mus musculus. Nature of the assay: Antiulcerogenic activity in Kunming mouse assessed as inhibition of ethanol-induced gastric ulcer at 3.3 mg/kg, po qd for 5 days measured 1 hr post last dose relative to control.
Assay [12] has as its system Mus musculus. Nature of the assay: Antiulcerogenic activity in Kunming mouse assessed as inhibition of ethanol-induced gastric ulcer at 13.4 mg/kg, po qd for 5 days measured 1 hr post last dose relative to control.
The subject of assay [13] is Mus musculus. Nature of the assay: Antiulcerogenic activity in Kunming mouse assessed as inhibition of ethanol-induced gastric ulcer at 4.1 mg/kg, po qd for 5 days measured 1 hr post last dose relative to control.
The test system of assay [14] is Mus musculus. Briefly: Antiulcerogenic activity in Kunming mouse assessed as inhibition of ethanol-induced gastric ulcer at 4.3 mg/kg, po qd for 5 days measured 1 hr post last dose relative to control.

On to `Cc1ccc(NS(=O)(=O)c2cc(C)c3cc(C(C)C)ccc(C)c2-3)cc1`, for which the inhibition in vivo at 3.7 mg/kg in the assay on Mus musculus [1] turned out to be 23.1%.

As to `Cc1cc(S(=O)(=O)NC(C)C)c2c(C)ccc(C(C)C)cc1-2`, in the assay on Mus musculus [2], the inhibition in vivo at 3.2 mg/kg turned out to be 18.7%.

On to `Cc1cc(S(=O)(=O)NC2CCCCC2)c2c(C)ccc(C(C)C)cc1-2`, for which the inhibition in vivo at 3.6 mg/kg with Mus musculus [3] came out at 50.9%.

With `Cc1cc(S(=O)(=O)Nc2ccc(/N=C/c3ccccc3)cc2)c2c(C)ccc(C(C)C)cc1-2`, the inhibition in vivo at 4.6 mg/kg in the assay with Mus musculus [4] is 17.1%.

Take `Cc1cc(S(=O)(=O)Nc2cccc3ccccc23)c2c(C)ccc(C(C)C)cc1-2`: the inhibition in vivo at 4 mg/kg in the assay on Mus musculus [5] is 50.5%.

For `Cc1cc(S(=O)(=O)N/N=C\c2ccc(C(F)(F)F)cc2)c2c(C)ccc(C(C)C)cc1-2`, the inhibition in vivo at 4.5 mg/kg in the assay on Mus musculus [6] was 24.8%.

On to `Cc1cc(S(=O)(=O)Nc2ccc(N)cc2)c2c(C)ccc(C(C)C)cc1-2`, for which the inhibition in vivo at 3.1 mg/kg in the assay on Mus musculus [7] was 45.2%.

For the compound `Cc1cc(S(=O)(=O)N/N=C\c2cccs2)c2c(C)ccc(C(C)C)cc1-2`, the inhibition in vivo at 3.9 mg/kg in the assay with Mus musculus [8] came out at 30.7%.

Consider `CCCNS(=O)(=O)c1cc(C)c2cc(C(C)C)ccc(C)c1-2`, for which, in the assay on Mus musculus [2], the inhibition in vivo at 3.2 mg/kg was 33%.

Turning to `Cc1cc(S(=O)(=O)NCc2ccccc2)c2c(C)ccc(C(C)C)cc1-2`, in the assay with Mus musculus [1], the inhibition in vivo at 3.7 mg/kg stood at 2.46%.

Regarding `Cc1cc(S(=O)(=O)Nc2ccc(/N=C/c3ccccc3O)cc2)c2c(C)ccc(C(C)C)cc1-2`, the inhibition in vivo at 4.7 mg/kg with Mus musculus [9] was 28.7%.

As for `Cc1cc(S(=O)(=O)Nc2ccc(/N=C/c3cccs3)cc2)c2c(C)ccc(C(C)C)cc1-2`, the inhibition in vivo at 4.6 mg/kg in the assay on Mus musculus [4] amounted to 50.2%.

Regarding `Cc1cc(S(=O)(=O)O)c2c(C)ccc(C(C)C)cc1-2` [SODIUM GUALENATE], the inhibition in vivo at 3 mg/kg with Mus musculus [10] was 32.6%.

`Cc1cc(S(=O)(=O)NCC(C)C)c2c(C)ccc(C(C)C)cc1-2`: the inhibition in vivo at 3.3 mg/kg in the assay with Mus musculus [11] stood at 33.9%.

`Cc1cc(S(=O)(=O)N/N=C\c2ccccc2O)c2c(C)ccc(C(C)C)cc1-2`: in the assay with Mus musculus [5], the inhibition in vivo at 4 mg/kg amounted to 12.2%.

As to `Cc1cc(S(=O)(=O)Nc2ccc(Cl)cc2)c2c(C)ccc(C(C)C)cc1-2`, the inhibition in vivo at 3.9 mg/kg in the assay with Mus musculus [8] stood at 24.8%.

For `COc1ccc2[nH]c([S+]([O-])Cc3ncc(C)c(OC)c3C)nc2c1` (stereo unspecified) [OMEPRAZOLE], the inhibition in vivo at 13.4 mg/kg with Mus musculus [12] is 36.7%.

Consider `COc1ccc(/C=N\NS(=O)(=O)c2cc(C)c3cc(C(C)C)ccc(C)c2-3)cc1`, for which, in the assay on Mus musculus [13], the inhibition in vivo at 4.1 mg/kg came out at 4.08%.

As to `Cc1cc(S(=O)(=O)Nc2cccc(Br)c2)c2c(C)ccc(C(C)C)cc1-2`, the inhibition in vivo at 4.3 mg/kg with Mus musculus [14] was 51.3%.

Regarding `COc1ccc(NS(=O)(=O)c2cc(C)c3cc(C(C)C)ccc(C)c2-3)c(OC)c1`, in the assay with Mus musculus [13], the inhibition in vivo at 4.1 mg/kg amounted to 52.8%.

`CCNS(=O)(=O)c1cc(C)c2cc(C(C)C)ccc(C)c1-2`: the inhibition in vivo at 3.1 mg/kg in the assay with Mus musculus [7] was determined as 24.1%.

For the origin of these results see ChEMBL document CHEMBL1833969, “Synthesis and antigastric ulcer activity of novel 5-isoproyl-3,8-dimethylazulene derivatives” (2011).
